Results on 16 molecules are retold here after ChEMBL document CHEMBL5390233, “Design, synthesis and biological evaluation of 2-aminopyrimidine derivatives as potent FLT3 inhibitors” (Bioorg Med Chem Lett, 2023).

The IC50 is the concentration that gives 50% inhibition.

Data set [1] addresses T1, Receptor-type tyrosine-protein kinase FLT3 (Homo sapiens, UniProt P36888).
T1 sequence (P36888 whole entry): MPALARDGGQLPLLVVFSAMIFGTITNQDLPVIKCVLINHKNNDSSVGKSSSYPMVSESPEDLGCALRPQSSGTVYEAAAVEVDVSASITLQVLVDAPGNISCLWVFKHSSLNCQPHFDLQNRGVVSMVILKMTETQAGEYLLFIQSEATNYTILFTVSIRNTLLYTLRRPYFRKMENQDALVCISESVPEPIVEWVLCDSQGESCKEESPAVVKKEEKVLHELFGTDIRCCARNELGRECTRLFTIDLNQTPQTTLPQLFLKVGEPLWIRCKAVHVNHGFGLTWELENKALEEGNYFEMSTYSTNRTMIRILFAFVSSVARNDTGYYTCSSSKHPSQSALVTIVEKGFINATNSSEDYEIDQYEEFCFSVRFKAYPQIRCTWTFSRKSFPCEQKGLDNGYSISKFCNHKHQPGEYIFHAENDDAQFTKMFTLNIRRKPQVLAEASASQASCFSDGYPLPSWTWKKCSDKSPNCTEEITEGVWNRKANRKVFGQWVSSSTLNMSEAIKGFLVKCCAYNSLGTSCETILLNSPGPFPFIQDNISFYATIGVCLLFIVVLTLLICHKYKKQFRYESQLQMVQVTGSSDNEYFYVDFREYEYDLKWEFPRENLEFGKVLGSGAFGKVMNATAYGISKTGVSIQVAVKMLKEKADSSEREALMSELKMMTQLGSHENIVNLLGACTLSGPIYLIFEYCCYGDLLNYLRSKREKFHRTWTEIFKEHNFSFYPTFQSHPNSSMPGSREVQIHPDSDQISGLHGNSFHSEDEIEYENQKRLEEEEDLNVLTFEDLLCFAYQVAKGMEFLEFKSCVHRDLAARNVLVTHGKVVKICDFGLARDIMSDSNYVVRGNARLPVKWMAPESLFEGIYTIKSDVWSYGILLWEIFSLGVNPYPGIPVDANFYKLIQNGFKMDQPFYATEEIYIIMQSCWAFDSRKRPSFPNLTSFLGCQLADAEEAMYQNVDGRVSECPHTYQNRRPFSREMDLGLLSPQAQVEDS
In words: Inhibition of wild type FLT3 (unknown origin).

In data set [2] the target is Receptor-type tyrosine-protein kinase FLT3 (Homo sapiens, UniProt P36888, D835Y). In words: Inhibition of FLT3 D835Y mutant (unknown origin).
The subject of a further data set is HeLa. In words: Antiproliferative activity against human HeLa cells assessed as inhibition of cell growth. In kind it is functional, cell-based.
Data set [3] deals with BaF3. In words: Antiproliferative activity against mouse BaF3 cells harboring FLT3-F691L mutant assessed as inhibition of cell growth. In kind it is functional, cell-based.
A further data set concerns MM1.S. Briefly: Antiproliferative activity against human MM1.S cells assessed as inhibition of cell growth. In kind it is functional, cell-based.
In the next data set the test system is MV4-11. Briefly: Antiproliferative activity against human MV4-11 cells assessed as inhibition of cell growth. Type of data set: functional, cell-based.
The test system of data set [4] is BaF3. Briefly: Antiproliferative activity against mouse BaF3 cells harboring FLT3-ITD mutant assessed as inhibition of cell growth. In kind it is functional, cell-based.
In data set [5] the test system is BaF3. Briefly: Antiproliferative activity against mouse BaF3 cells harboring FLT3-ITD-D835Y mutant assessed as inhibition of cell growth. Type of data set: functional, cell-based.
In data set [6] the test system is BaF3. Briefly: Antiproliferative activity against mouse BaF3 cells harboring FLT3-D835F mutant assessed as inhibition of cell growth. Type of data set: functional, cell-based.
The next data set has as its system MCF7. In words: Antiproliferative activity against human MCF7 cells assessed as inhibition of cell growth. Type of data set: functional, cell-based.
A short description of data set [7]: Antiproliferative activity against human PBMC cells assessed as inhibition of cell growth. In kind it is toxicity, cell-based.
Data set [8] deals with BaF3. In words: Antiproliferative activity against mouse BaF3 cells harboring FLT3-D835V mutant assessed as inhibition of cell growth. In kind it is functional, cell-based.
Another data set deals with MOLM-13. Briefly: Antiproliferative activity against human MOLM-13 cells assessed as inhibition of cell growth. In kind it is functional, cell-based.

With `CC1(COc2ccc(Nc3ncc(C(F)(F)F)c(N4CCOCC4)n3)cc2)COC1`, the half-inhibitory concentration (IC50) in [1] amounted to 0.339 µM; in [2], 0.38 µM.
Take `CC1(COc2ccc(Nc3ncc(C(F)(F)F)c(N4CCNCC4)n3)cc2)COC1`: the IC50 in data set [1] was determined as 0.231 µM; in data set [2], 0.351 µM.
In the case of `CCc1nc(C(N)=O)c(Nc2ccc(N3CCC(N4CCN(C)CC4)CC3)c(OC)c2)nc1NC1CCOCC1` [GILTERITINIB], the concentration for half-maximal inhibition (IC50) in the data set on HeLa (Homo sapiens, HeLa) is 3.2 µM; in the data set with BaF3 [3] (Mus musculus, BaF3), 0.00105 µM; in the data set with MM1.S (Homo sapiens, MM1.S) it was 0.203 µM; with MV4-11 (Homo sapiens, MV4-11), 0.00134 µM; in the data set on BaF3 [4] (Mus musculus, BaF3) it was 0.0006 µM; in the data set on BaF3 [5] (Mus musculus, BaF3), 0.00048 µM. For the same molecule, the IC50 in the data set with BaF3 [6] (Mus musculus, BaF3) amounted to 0.00066 µM; in the data set on MCF7 (Homo sapiens, MCF7) it was 1.3 µM; in [7], 7.03 µM; in the data set on BaF3 [8] (Mus musculus, BaF3), 0.00062 µM.
For `CC1(COc2cccc(Nc3ncc(C(F)(F)F)c(NCC4CCNCC4)n3)c2)COC1`, the figures for the 50% inhibitory concentration (IC50) (in [1]; in [2]; in the data set on MV4-11 (mv4-11)) were 0.011 µM, 0.0224 µM and 0.00693 µM, respectively.
`CC1(COc2ccc(Nc3ncc(C(F)(F)F)c(N4CCC(O)CC4)n3)cc2)COC1`: the half-inhibitory concentration (IC50) came out at 0.086 µM in data set [1] and 0.142 µM in data set [2].
On to `CN1CCN(c2nc(Nc3ccc(OCC4(C)COC4)cc3)ncc2C(F)(F)F)CC1`, for which the IC50 in data set [1] was found to be 0.339 µM; in data set [2], 0.686 µM.
Taken in the same sequence, the figures for `CC1(COc2ccc(Nc3ncc(C(F)(F)F)c(NC4CCNCC4)n3)cc2)COC1` were 0.0289 µM and 0.0417 µM.
In the case of `CC1(COc2ccc(Nc3ncc(C(F)(F)F)c(N[C@H]4CC[C@@H](O)CC4)n3)cc2)COC1`, the IC50 came out at 0.00946 µM in data set [1]; 0.00979 µM in [2]; 0.0429 µM with MV4-11 (Homo sapiens, MV4-11).
For `CC1(COc2cccc(Nc3ncc(C(F)(F)F)c(N[C@@H]4CCCNC4)n3)c2)COC1`, the IC50 in data set [1] stood at 0.0165 µM; in data set [2] it was 0.0243 µM; with MV4-11 (mv4-11), 0.0173 µM.
Turning to `CC1(COc2ccc(Nc3ncc(C(F)(F)F)c(NCC4CCNCC4)n3)cc2)COC1`, the 50% inhibitory concentration (IC50) in data set [1] worked out at 0.0324 µM; in data set [2], 0.0408 µM.
Consider `CC1(COc2ccc(Nc3ncc(C(F)(F)F)c(N[C@H]4CC[C@H](N)CC4)n3)cc2)COC1`, for which the IC50 in data set [1] worked out at 0.0299 µM; in data set [2], 0.0275 µM; with MV4-11 (mv4-11) it was 0.0264 µM.
For `CC1(COc2ccc(Nc3ncc(C(F)(F)F)c(N[C@H]4CC[C@@H](N)CC4)n3)cc2)COC1`, the half-maximal inhibitory concentration (IC50) in the data set with HeLa (hela) was determined as 5.78 µM; in the data set with BaF3 [3] (baf3), 0.0042 µM; with MM1.S (mm1.s), 2.25 µM; in [1], 0.00742 µM; with MOLM-13, 0.0106 µM; in data set [2], 0.00921 µM. The IC50 worked out at 0.00083 µM with MV4-11 (mv4-11); 0.00091 µM in the data set with BaF3 [4] (baf3); 0.00095 µM with BaF3 [5] (baf3); 0.00094 µM in the data set on BaF3 [6] (baf3); 4.98 µM with MCF7 (mcf7); 7.86 µM in [7]. For the same molecule, the IC50 in the data set with BaF3 [8] (baf3) was determined as 0.00098 µM.
Take `CC1(COc2ccc(Nc3ncc(C(F)(F)F)c(N[C@H]4CC[C@H](O)CC4)n3)cc2)COC1`: the IC50 in data set [1] came out at 0.0296 µM; in data set [2], 0.0646 µM; with MV4-11 (Homo sapiens, MV4-11), 0.00758 µM.
For `CC1(COc2ccc(Nc3ncc(C(F)(F)F)c(N4CCC(N)CC4)n3)cc2)COC1`, the IC50 was 0.138 µM in data set [1] and 0.35 µM in [2].
Taken in the same sequence, the figures for `CC1(COc2cccc(Nc3ncc(C(F)(F)F)c(NC4CCNCC4)n3)c2)COC1` were 0.0321 µM and 0.0687 µM.
As for `CC1(COc2ccc(Nc3ncc(C(F)(F)F)c(N[C@@H]4CCCNC4)n3)cc2)COC1`, the 50% inhibitory concentration (IC50) stood at 0.0143 µM in data set [1], 0.0259 µM in [2] and 0.00974 µM in the data set with MV4-11 (mv4-11).
